Source: patent US20230181601A1, “TREATMENT OF NON-ALCOHOLIC STEATOHEPATITIS (NASH)” (DURECT CORPORATION, priority 2020, published 2023)

Assays:
NASH patients = details: 50 mg vs 200 mg oral; cited from earlier work
[1] = Phase 1b study in NASH patients: pharmacokinetics; format: in vivo, human; details: for CL/F / AUC(0-t) / Cmax / Tmax / half-life: NASH patients, mean (standard deviation); for AUC(0-t) / Cmax / Tmax / half-life: both sexes, human, plasma
Description: A total of 63 patients completed the study with 21 patients per dose group (completion of MRI-PDFF measurement). […] Subjects provided written informed consent to participate in the study • 2. Males or females subjects 18 years or older, at the time of signing informed consent • 3. BMI 20-45 kg/m^2 • 4. […] Value of Fibroscan® ≥7 kPa • OR • b. MRE≥2.75 kPa • *Clinical diagnosis of NASH was defined in this clinical trial as the existence of one or more of the following risk factors for NASH, namely: • a. Type 2 diabetes or elevated fasting blood sugar • b. Abdominal obesity • c. Elevated lipid levels, especially elevated levels of serum triglycerides • d. Hypertension, or • e. Low levels of HDL cholesterol • 5. For serum transaminases, ALT concentration for all patients at the time of screening was >1 and <5 times upper limit of normal (ULN) of the central lab in the absence of another cause of liver disease. If a patient had lab records in the past 6 months, ALT concentrations were <20 U/L female and <30 U/L male. AST concentration for all patients at the time of screening was <5x ULN • 6. […] Platelet counts ≥120,000/mm^3 • 8. Female subjects were eligible for the study if they met the following criteria: • Are not pregnant or nursing • Women of child-bearing potential (defined as females who are not surgically sterile or who are not over the age of 52 and amenorrheic for at least 12 months) must utilize appropriate birth control throughout the study duration. Acceptable methods that may be used are abstinence, birth control pills (“The Pill”) or patch, diaphragm, IUD (coil), vaginal ring, condom, surgical sterilization or progestin implant or injection, or sexual activity limited to a sterile (e.g., vasectomized) male partner • 9. Male participants agreed to consistently and correctly use a condom in combination with one of the above methods of birth control from enrolment to 30 days after the last dose of study medication • 10. Participants were able to comply with dosing and able to complete the study schedule of assessments
The pharmacokinetics of administered 25HC3S was determined.

[2] = Metabolite profiling of plasma, urine and feces after intravenous dose; format: in vivo, male Sprague Dawley rats; details: intravenous 10 mg/kg
Description: Nine male Sprague Dawley rats (Group 1) were designated for the pharmacokinetic phase, 3 male Sprague Dawley rats (Group 2) for the excretion mass balance phase, and 7 male Sprague Dawley rats (Group 3) and 9 male Long Evans rats (Group 4) for the tissue distribution phase. All animals received a single intravenous dose of [^14C]-25HC3S at 10 mg/kg and a target radioactivity of 225 μCi/kg. Blood samples were collected from all Group 1 animals at approximately 0.083, 0.25, 0.5, 1, 2, 4, 8, 12, 24, 48, and 72 hours post-dose. Urine and feces were collected from all Group 2 animals periodically through 168 hours post-dose. […] Following blood collection, animals were euthanized by CO2 inhalation and carcasses frozen in a dry ice/hexane bath for processing by quantitative whole body autoradiography. Whole blood, plasma, urine, feces, cage rinse, and cage wash were analyzed for total radioactivity by liquid scintillation counting.

[3] = system: patients with Non-Alcoholic Steatohepatitis (NASH); test: Phase 1b study in NASH patients: safety; format: in vivo, human; details: all three doses (50 mg, 150 mg, 600 mg daily), 4 weeks oral
Description: A total of 63 patients completed the study with 21 patients per dose group (completion of MRI-PDFF measurement). […] Subjects provided written informed consent to participate in the study • 2. Males or females subjects 18 years or older, at the time of signing informed consent • 3. BMI 20-45 kg/m^2 • 4. […] Value of Fibroscan® ≥7 kPa • OR • b. MRE≥2.75 kPa • *Clinical diagnosis of NASH was defined in this clinical trial as the existence of one or more of the following risk factors for NASH, namely: • a. Type 2 diabetes or elevated fasting blood sugar • b. Abdominal obesity • c. Elevated lipid levels, especially elevated levels of serum triglycerides • d. Hypertension, or • e. Low levels of HDL cholesterol • 5. For serum transaminases, ALT concentration for all patients at the time of screening was >1 and <5 times upper limit of normal (ULN) of the central lab in the absence of another cause of liver disease. If a patient had lab records in the past 6 months, ALT concentrations were <20 U/L female and <30 U/L male. AST concentration for all patients at the time of screening was <5x ULN • 6. […] Platelet counts ≥120,000/mm^3 • 8. […]

[4] = Single oral dose safety and pharmacokinetic study in NASH and healthy subjects; format: in vivo, human; details: for Cmax: read-out: Cmax
Description: The present Example was a randomized, dose ranging, single dose safety and pharmacokinetic study of 25HC3S administered to subjects with NASH and control healthy subjects. […] For each cohort, 10 subjects with NASH were enrolled which were further classified into cirrhotic and non-cirrhotic. Each subject received only one dose of study treatment. The second cohort was dosed after a review of safety and tolerability data from Cohort 1.

CL/F ([1]; 50 mg QD oral): 150.6 (51.5) L/h
CL/F ([1]; 150 mg QD oral): 176.6 (80.5) L/h
CL/F ([1]; 300 mg BID oral): 166.2 (60.4) L/h
AUC(0-t) ([1]; 50 mg QD oral): 340 ng·h/mL
Cmax ([1]; 50 mg QD oral): 79.1 ng/mL
Tmax ([1]; 50 mg QD oral): 2.4 h
half-life ([1]; 50 mg QD oral): 2.7 h
AUC(0-t) ([1]; 150 mg QD oral): 1040 ng·h/mL
Cmax ([1]; 150 mg QD oral): 274 ng/mL
Tmax ([1]; 150 mg QD oral): 2 h
half-life ([1]; 150 mg QD oral): 2.7 h
AUC(0-t) ([1]; 300 mg BID oral): 2140 ng·h/mL
Cmax ([1]; 300 mg BID oral): 430 ng/mL
Tmax ([1]; 300 mg BID oral): 2.3 h
half-life ([1]; 300 mg BID oral): 2.4 h
% of dose in feces ([2]; pools 0 to 48 hours postdose): 2 % of dose
share of the exposure (AUC) to 25HC3S related radioactivity in plasma ([2]; up to 1 hour postdose): approximately 54%
Structure (SMILES): C[C@H](CCCC(C)(C)O)[C@H]1CC[C@H]2[C@@H]3CC=C4C[C@@H](OS(=O)(=O)O)CC[C@]4(C)[C@H]3CC[C@]12C [25HC3S, 5-cholesten-3,25-diol, 3-sulfate]
dose dependence of biological responses (NASH patients): no dose-dependent changes of biological responses
PK parameters after repeat dosing ([1]; repeat vs single dose): comparable to those after a single dose and were dose dependent
tolerability, drug related serious adverse events [3]: well tolerated at all three doses with no drug related serious adverse events observed
difference in pharmacokinetics between healthy subjects and NASH patients ([4]; 50 mg and 200 mg single oral dose): no clear difference in pharmacokinetics
CL/F ([4]; 200 mg single oral dose, Healthy, Mean): 171.25 ± 28.60 L/h
time post-dose up to which plasma levels were detectable ([4]; Cohort 1 (50 mg) healthy subjects): up to 12 hours
AUC0-inf, higher in NASH than healthy subjects ([4]; Cohort 2 (200 mg)): approximately 20%
geometric mean AUC0-12 and AUC0-last, higher in NASH than healthy subjects ([4]; Cohort 2 (200 mg)): approximately 30%
time post-dose up to which plasma levels were detectable ([4]; Cohort 2 (200 mg) healthy subjects): up to 16 hours
increase of geometric mean Cmax in NASH over healthy subjects ([4]; Cohorts 1 and 2): 18-24%
exposure (AUC parameters), potential increasing trends in NASH subjects ([4]; NASH vs healthy): up to 31%
half-life ([4]; human, plasma, oral, across both healthy and NASH subject groups, 50 mg and 200 mg, read-out: T1/2, range of mean values): 1.67 to 2.51 h
Cmax ([4]; human, plasma, 50 mg single oral dose, Healthy, Mean): 94 ± 27.3 ng/mL
Cmax ([4]; human, plasma, 200 mg single oral dose, Healthy, Mean): 260 ± 54.8 ng/mL
